Molecular target: T1, TAK1 (Homo sapiens, UniProt O43318)
T1 construct: gene MAP3K7
T1 sequence (O43318 1-303): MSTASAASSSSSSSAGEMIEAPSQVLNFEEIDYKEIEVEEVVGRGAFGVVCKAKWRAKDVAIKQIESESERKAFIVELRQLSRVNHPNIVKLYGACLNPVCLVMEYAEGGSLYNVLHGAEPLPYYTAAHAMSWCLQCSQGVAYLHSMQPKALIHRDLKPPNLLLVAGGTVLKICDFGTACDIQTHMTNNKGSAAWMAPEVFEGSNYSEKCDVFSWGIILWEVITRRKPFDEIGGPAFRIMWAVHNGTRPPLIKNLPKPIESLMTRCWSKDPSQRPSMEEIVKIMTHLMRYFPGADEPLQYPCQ
T1 sequence (Q15750 437-504 partner): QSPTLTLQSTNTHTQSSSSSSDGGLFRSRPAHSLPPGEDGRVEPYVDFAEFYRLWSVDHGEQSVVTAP
Assay: in vitro kinase inhibition (IC50); selectivity profiled by KiNativ, Ambit and radioactive filter binding panels
Assay type: biochemical

IC50: 4 nM
Compound: CCN1CCN(Cc2ccc(NC(=O)c3ccc(C)c(Oc4ccnc5[nH]ccc45)c3)cc2C(F)(F)F)CC1 [NG25]

— publication PMC3377608, “The IkappaB Kinase Family Phosphorylates the Parkinson’s Disease Kinase LRRK2 at Ser935 and Ser910 during Toll-Like Receptor Signaling” (PLoS ONE, 2012)
